Literature values, collected in patent US10631556B2, “Method for conducing concentrated cannabis oil to be stable, emulsifiable and flavorless for use in hot beverages and resulting powderized cannabis oil” (Pivot Naturals, LLC., priority 2015, dated 2020).

Experiments:
[1] = inhalation
CYP 2C9 = CYP 2C9 (Homo sapiens, UniProt P11712); conditions: anecdotal online article
Mice [2] = system: Mice
Mice [3] = conditions: odor inhaled from ambient air for 1 hour
[4] = mice, odor inhaled from ambient air for 1 hour

CYP 2C9, sequence (P11712 whole entry): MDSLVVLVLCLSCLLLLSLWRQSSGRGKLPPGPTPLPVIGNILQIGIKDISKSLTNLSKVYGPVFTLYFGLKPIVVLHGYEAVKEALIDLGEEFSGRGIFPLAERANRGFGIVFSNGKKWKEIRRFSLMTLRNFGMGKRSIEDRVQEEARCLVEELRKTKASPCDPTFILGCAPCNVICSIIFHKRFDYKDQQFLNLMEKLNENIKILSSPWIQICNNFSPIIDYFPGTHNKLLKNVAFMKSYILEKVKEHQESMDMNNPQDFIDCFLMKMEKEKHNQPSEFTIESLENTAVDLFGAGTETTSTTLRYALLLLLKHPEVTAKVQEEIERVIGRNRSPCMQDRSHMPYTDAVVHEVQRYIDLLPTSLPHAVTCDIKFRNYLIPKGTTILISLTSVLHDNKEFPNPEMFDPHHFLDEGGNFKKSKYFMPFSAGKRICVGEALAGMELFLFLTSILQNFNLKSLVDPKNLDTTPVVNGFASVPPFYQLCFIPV

C=C(C)[C@H]1CC=C(C)CC1 [Limonene]
human pulmonary uptake [1]: 70%

O=C(/C=C/C=C/c1ccc2c(c1)OCO2)N1CCCCC1 [Piperine]
inhibition of CYP 2C9 (CYP 2C9): strongly

C=CC(=C)CCC=C(C)C [myrcene]
muscle relaxant effect (Mice [2]): acted as a muscle relaxant | barbiturate sleep time (Mice [2]; high doses): potentiated barbiturate sleep time

C=CC(C)(O)CCC=C(C)C (centres unmarked) [linalool]
reduction in motility (Mice [3]): 73% | serum concentration [4]: 4.22 ng/mL

pinene
increase in mouse activity (Mice [3]): 13.77% | human pulmonary uptake [1]: 60% | serum concentration [4]: trace

CCCCCc1cc(O)c2c(c1)OC(C)(C)[C@@H]1CCC(C)=C[C@@H]21 [THC, tetrahydrocannabinol]
solubility in most organic solvents (organic solvents, specifically lipids and alcohols): good | solubility in water (water): very low
